Assay results published in patent US20250002471A1 (Gilead Sciences, Inc., priority 2020, published 2025).

What was measured:
TLR7 = biological target: T1, TLR7 (Homo sapiens, UniProt Q9NYK1); experiment: Human PBMC cell-based assay, TLR7 agonist GS-986 stimulation, cytokine (IL-6 and IFNα) readout; settings: human PBMCs, GS-986 400 nM, 6 hours; Table 26; read-out: TLR-7 EC50
T1 construct: lymphocytes, monocytes and dendritic cells that express TLR7, TLR8 and TLR9; endogenous in cells; host or cells: human PBMCs from healthy donors
T1 sequence (Q9NYK1 27-1049): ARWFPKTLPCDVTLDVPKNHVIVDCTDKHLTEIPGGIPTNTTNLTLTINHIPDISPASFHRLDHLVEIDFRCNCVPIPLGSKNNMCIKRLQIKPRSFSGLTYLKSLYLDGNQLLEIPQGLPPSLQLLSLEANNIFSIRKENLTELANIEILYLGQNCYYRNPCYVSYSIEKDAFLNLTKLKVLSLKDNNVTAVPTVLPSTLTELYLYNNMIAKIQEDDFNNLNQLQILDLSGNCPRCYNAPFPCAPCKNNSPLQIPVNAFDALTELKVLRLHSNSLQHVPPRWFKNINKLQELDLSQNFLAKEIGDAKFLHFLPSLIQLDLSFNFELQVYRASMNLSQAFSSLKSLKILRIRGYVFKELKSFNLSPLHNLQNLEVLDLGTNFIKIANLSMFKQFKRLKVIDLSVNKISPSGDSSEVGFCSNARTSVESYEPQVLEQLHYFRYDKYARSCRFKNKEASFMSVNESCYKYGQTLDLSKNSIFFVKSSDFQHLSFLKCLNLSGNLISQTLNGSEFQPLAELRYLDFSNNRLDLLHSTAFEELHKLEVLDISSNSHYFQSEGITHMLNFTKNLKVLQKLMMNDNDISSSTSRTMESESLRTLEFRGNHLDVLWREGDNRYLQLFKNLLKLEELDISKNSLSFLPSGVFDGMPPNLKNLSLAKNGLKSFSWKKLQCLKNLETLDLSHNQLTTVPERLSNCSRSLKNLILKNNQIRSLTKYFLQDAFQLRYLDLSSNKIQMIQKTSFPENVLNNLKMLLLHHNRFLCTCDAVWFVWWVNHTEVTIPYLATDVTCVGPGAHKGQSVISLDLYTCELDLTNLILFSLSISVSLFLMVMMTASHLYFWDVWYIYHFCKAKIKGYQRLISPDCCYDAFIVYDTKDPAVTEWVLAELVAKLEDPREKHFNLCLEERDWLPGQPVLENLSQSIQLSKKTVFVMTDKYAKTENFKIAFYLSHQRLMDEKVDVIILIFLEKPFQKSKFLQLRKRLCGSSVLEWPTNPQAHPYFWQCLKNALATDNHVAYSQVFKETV
In short: (§1)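 Readout is IL-6 and IFNα in supernatants, quantified by electrochemiluminescence, with EC50 from a sigmoidal fit of cytokine versus concentration. Healthy-donor human PBMCs, 100,000 per well, got antagonist for 1 h at 37 °C, then 6 h agonist exposure: TLR7 via GS-986 at 400 nM final, TLR9 via ODN-2216 at 3 μM final.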

TLR9 = biological target: T2, TLR9 (Homo sapiens, UniProt Q9NR96); experiment: Human PBMC cell-based assay, TLR9 agonist ODN-2216 stimulation, cytokine (IL-6 and IFNα) readout; settings: human PBMCs, ODN-2216 3 μM, 6 hours; Table 26; read-out: TLR-9 EC50
T2 construct: lymphocytes, monocytes and dendritic cells that express TLR7, TLR8 and TLR9; endogenous in cells; host or cells: human PBMCs from healthy donors
T2 sequence (Q9NR96 26-1032): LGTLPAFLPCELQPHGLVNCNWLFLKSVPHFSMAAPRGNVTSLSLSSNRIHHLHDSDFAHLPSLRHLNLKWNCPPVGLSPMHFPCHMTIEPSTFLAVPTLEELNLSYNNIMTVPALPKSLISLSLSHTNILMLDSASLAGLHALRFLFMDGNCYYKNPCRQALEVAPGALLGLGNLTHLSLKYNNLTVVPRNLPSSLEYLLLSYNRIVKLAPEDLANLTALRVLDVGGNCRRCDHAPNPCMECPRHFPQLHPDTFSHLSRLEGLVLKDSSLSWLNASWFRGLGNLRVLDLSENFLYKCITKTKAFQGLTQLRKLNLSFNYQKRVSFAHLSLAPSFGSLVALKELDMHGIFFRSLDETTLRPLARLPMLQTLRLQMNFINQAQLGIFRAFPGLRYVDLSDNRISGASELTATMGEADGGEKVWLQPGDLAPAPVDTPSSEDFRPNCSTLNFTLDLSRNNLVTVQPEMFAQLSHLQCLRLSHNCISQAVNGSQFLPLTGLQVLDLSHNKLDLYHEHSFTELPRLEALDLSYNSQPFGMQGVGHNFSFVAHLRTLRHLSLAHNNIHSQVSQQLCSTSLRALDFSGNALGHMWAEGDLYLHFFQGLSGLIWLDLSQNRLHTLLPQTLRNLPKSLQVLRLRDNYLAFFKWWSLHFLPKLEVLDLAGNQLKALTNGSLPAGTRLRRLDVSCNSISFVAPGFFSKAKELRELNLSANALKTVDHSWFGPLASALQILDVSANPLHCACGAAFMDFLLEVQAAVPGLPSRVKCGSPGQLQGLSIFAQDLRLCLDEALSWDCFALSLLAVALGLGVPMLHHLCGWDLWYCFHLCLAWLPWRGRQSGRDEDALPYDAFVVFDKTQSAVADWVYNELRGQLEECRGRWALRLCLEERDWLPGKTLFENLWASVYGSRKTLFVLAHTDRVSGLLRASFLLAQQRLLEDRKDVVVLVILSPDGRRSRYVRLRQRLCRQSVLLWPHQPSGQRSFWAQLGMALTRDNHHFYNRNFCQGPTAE
In short: as §1

| EC50 (TLR7) [µM] | EC50 (TLR9) [µM] | Molecule |
| --- | --- | --- |
| 0.0568 | 0.0592 | Cc1cc(-c2[nH]c3cc(-c4ccc(N5CCN(C(=O)[C@H]6COCCN6)CC5)nc4)ccc3c2C)cc(C)n1 [Example 111] |
| 0.0228 | 0.0563 | Cc1cc(-c2[nH]c3cc(-c4cnc(N5CCNCC5)c(C)c4)ccc3c2C)cc(C)n1 [Example 3] |
| 0.0536 | 0.0556 | Cc1cc(-c2[nH]c3cc(-c4ccc5c(c4)CNC5)ccc3c2C)cc(C)n1 [Example 15] |
| 0.17 | 0.0872 | Cc1cc(-c2[nH]c3cc(-c4ccc(CN5CCNCC5)cc4)ccc3c2C)cc(C)n1 [Example 7] |
| 0.0316 | 0.122 | Cc1cc(-c2[nH]c3cc(-c4ccc(N5CC6(CNCCO6)C5)nc4)ccc3c2C)cc(C)n1 [Example 29] |
| 0.607 | 0.18 | Cc1cc(-c2[nH]c3cc(-c4cccc5c4CCNC5)ccc3c2C)cc(C)n1 [Example 62, 5-(2-(2,6-dimethylpyridin-4-yl)-3-methyl-1H-indol-6-yl)-1,2,3,4-tetrahydroisoquinoline] |
| 0.154 | 0.227 | Cc1cc(-c2[nH]c3cc(-c4ccc(N)nc4)ccc3c2C)cc(C)n1 [Example 5] |
| 0.0381 | 0.0505 | Cc1cc(-c2[nH]c3cc(-c4cnc5c(c4)CNCC5)ccc3c2C)cc(C)n1 [Example 9] |
| 0.0026 | 0.733 | Cc1c(-c2ccc(C#N)c3ncccc23)[nH]c2cc(-c3ccc(N4CCNCC4)nc3)ccc12 [Example 97] |
| 0.051 | 0.0799 | Cc1cc(-c2[nH]c3cc(-c4ccc(N5CC[C@H]6CNC[C@H]65)nc4)ccc3c2C)cc(C)n1 [Example 33] |
| 0.331 | 0.621 | Cc1cc(-c2[nH]c3cc(-c4cnc5[nH]c(C)nc5c4)ccc3c2C)cc(C)n1 [Example 45] |
| 0.031 | 0.0402 | Cc1cc(-c2[nH]c3cc(-c4ccc(N5CCC[C@H](N)C5)nc4)ccc3c2C)cc(C)n1 [Example 26] |
| 2.67 | 1.43 | Cc1cncc(-c2[nH]c3cc(-c4ccc(N5CCNCC5)nc4)ccc3c2C)c1C [Example 86] |
| 0.324 | 0.0932 | Cc1cc(-c2[nH]c3cc(-c4ccc(S(=O)(=O)N5CCNCC5)cc4)ccc3c2C)cc(C)n1 [Example 68] |
| 0.345 | 0.228 | Cc1cc(-c2[nH]c3cc(-c4cn(C5CCNCC5)nc4C)ccc3c2C)cc(C)n1 [Example 11] |
| 0.14 | 0.0679 | Cc1cc(-c2[nH]c3cc(-c4ccc(N5CCN(CC(=O)N(C)C)CC5)nc4)ccc3c2C)cc(C)n1 [Example 116] |
| 0.0688 | 0.123 | CNC(=O)CN1CCN(c2ccc(-c3ccc4c(C)c(-c5cc(C)nc(C)c5)[nH]c4c3)cn2)CC1 [Example 113, 2-(4-(5-(2-(2,6-dimethylpyridin-4-yl)-3-methyl-1H-indol-6-yl)pyridin-2-yl)piperazin-1-yl)-N-methylacetamide] |

| EC50 (TLR7) [µM] | EC50 (TLR9) [µM] | Molecule |
| --- | --- | --- |
| 0.209 | 0.0384 | Cc1cc(-c2[nH]c3cc(-c4cccc(S(=O)(=O)N5CCNCC5)c4)ccc3c2C)cc(C)n1 [Example 69] |
| 1.13 | 1.52 | Cc1cncc(-c2[nH]c3cc(-c4ccc(N5CCNCC5)nc4)ccc3c2C)n1 [Example 98] |
| 1.73 | 0.217 | CC(=O)c1c(-c2cc(C)nc(C)c2)[nH]c2cc(-c3ccc(N4CCNCC4)nc3)ccc12 [Example 102, 1-(2-(2,6-dimethylpyridin-4-yl)-6-(6-(piperazin-1-yl)pyridin-3-yl)-1H-indol-3-yl)ethan-1-one] |
| 0.0009 | 0.0312 | Cc1cc(-c2[nH]c3cc(-c4ccc(N5CC[C@@H](N)C5)nc4)ccc3c2C2CC2)cc(C)n1 [Example 105] |
| 0.0583 | 0.114 | Cc1cc(-c2[nH]c3cc(-c4ccc(N5CCN(C(=O)[C@@H]6CNCCO6)CC5)nc4)ccc3c2C)cc(C)n1 [Example 112] |
| 0.103 | 0.0473 | Cc1cc(-c2[nH]c3cc(-c4cccc(C(=O)N5CCNCC5)c4)ccc3c2C)cc(C)n1 [Example 12] |
| 0.0045 | 0.139 | Cc1cc(-c2[nH]c3cc(-c4ccc(N5CCNCC5)nc4)ccc3c2C)cn(C)c1=O [Example 94, 1,3-dimethyl-5-(3-methyl-6-(6-(piperazin-1-yl)pyridin-3-yl)-1H-indol-2-yl)pyridin-2(1H)-one] |
| 0.102 | 0.0193 | Cc1cc(-c2[nH]c3cc(-c4ccc5c(c4)CCNC5)ccc3c2C)cc(C)n1 [Example 13] |
| 0.503 | 0.489 | Cc1ncc(-c2[nH]c3cc(-c4ccc(N5CCNCC5)nc4)ccc3c2C)cn1 [Example 82] |
| 0.0459 | 0.119 | Cc1cc(-c2[nH]c3cc(-c4ccc(N5CCN(C(=O)CN)CC5)nc4)ccc3c2C)cc(C)n1 [Example 137] |
| 0.437 | 0.101 | Cc1cc(-c2[nH]c3cc(C#CC4CCNCC4)ccc3c2C)cc(C)n1 [Example 100, 2-(2,6-dimethylpyridin-4-yl)-3-methyl-6-(piperidin-4-ylethynyl)-1H-indole] |
| 0.012 | 1.92 | CCc1c(-c2cc(C)c3ncnn3c2)[nH]c2cc(C3CCNCC3)ccc12 [Example 52] |
| 0.196 | 0.0552 | Cc1cc(-c2[nH]c3cc(-c4ccc(N5C[C@H]6CC[C@@H](C5)[C@H]6N)nc4)ccc3c2C)cc(C)n1 [Example 27] |
| 0.016 | 0.055 | Cc1cc(-c2[nH]c3cc(-c4nnc(C5CCNCC5)o4)ccc3c2C)cc(C)n1 [Example 190, 2-[2-(2,6-dimethyl-4-pyridyl)-3-methyl-1H-indol-6-yl]-5-(4-piperidyl)-1,3,4-oxadiazole] |
| 0.0488 | 0.277 | Cc1cc(-c2[nH]c3cc(-c4ccc(C(=O)N5CCC(N)CC5)nc4)ccc3c2C)cc(C)n1 [Example 145, (4-aminopiperidin-1-yl)(5-(2-(2,6-dimethylpyridin-4-yl)-3-methyl-1H-indol-6-yl)pyridin-2-yl)methanone] |
| 0.0541 | 0.193 | Cc1cc(-c2[nH]c3cc(-c4cccc(C(=O)N5CC[C@H](N)C5)c4)ccc3c2C)cc(C)n1 [Example 119, (S)-(3-aminopyrrolidin-1-yl)(3-(2-(2,6-dimethylpyridin-4-yl)-3-methyl-1H-indol-6-yl)phenyl)methanone] |
| 0.273 | 0.382 | Cc1cc(-c2[nH]c3cc(-c4ccc(N5CCN(C6COC6)CC5)nc4)ccc3c2C)cc(C)n1 [Example 38] |

| Molecule | EC50 (TLR7) [µM] | EC50 (TLR9) [µM] |
| --- | --- | --- |
| 2-(2,6-dimethylpyridin-4-yl)-3-methyl-6-(1′,2′,3′,6′-tetrahydro-[2,4′-bipyridin]-5-yl)-1H-indole [Example 133] | 0.0248 | 0.0504 |
